# Data taken from ChEMBL document CHEMBL5344468, “Novel Heterocyclic PAD4 Inhibitors for Treating Diseases” (ACS Med Chem Lett, 2024).
# Target: Protein-arginine deiminase type-4 (Homo sapiens, UniProt Q9UM07)
# Assay: Inhibition of human PAD4 using BAEE as substrate preincubated with enzyme for 30 mins followed by substrate addition for 90 mins and later incubated with phenyl glyoxal for 30 mins by RFMS assay
# Sequence of Protein-arginine deiminase type-4 (Q9UM07 whole entry): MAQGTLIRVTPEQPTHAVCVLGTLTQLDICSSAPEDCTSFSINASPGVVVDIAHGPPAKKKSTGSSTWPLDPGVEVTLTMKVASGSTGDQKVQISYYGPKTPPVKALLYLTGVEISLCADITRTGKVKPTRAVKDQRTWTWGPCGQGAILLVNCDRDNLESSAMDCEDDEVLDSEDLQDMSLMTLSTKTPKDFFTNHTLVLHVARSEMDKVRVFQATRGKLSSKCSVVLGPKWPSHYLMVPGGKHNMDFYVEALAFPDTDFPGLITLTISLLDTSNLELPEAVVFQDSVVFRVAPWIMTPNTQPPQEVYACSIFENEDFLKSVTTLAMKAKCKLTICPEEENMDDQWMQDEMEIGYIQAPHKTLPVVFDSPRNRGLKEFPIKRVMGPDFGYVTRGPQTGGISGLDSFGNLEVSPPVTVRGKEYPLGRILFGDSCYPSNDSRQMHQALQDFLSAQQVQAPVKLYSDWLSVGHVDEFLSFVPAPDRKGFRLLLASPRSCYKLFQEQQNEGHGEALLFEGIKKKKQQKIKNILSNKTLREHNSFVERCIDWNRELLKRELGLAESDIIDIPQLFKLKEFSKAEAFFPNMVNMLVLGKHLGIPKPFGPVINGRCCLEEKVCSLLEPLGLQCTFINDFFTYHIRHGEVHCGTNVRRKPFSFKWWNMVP
row,Structure (SMILES),IC50 [nM]
1,Cn1c(-c2cc3cccc(OCCc4ccon4)c3n2CC2CC2)nc2cc3c(nc21)CCN(C[C@H](N)CF)C3=O,≤ 10
2,Cn1c(-c2cc3cccc(OCCc4cccnc4)c3n2CC2CC2)nc2cc3c(nc21)CCN(C[C@H](N)CF)C3=O,≤ 10
3,Cn1c(-c2cc3ccnc(OCCn4ccnc4)c3n2CC2CC2)nc2cc3c(nc21)CCN(C[C@H](N)CF)C3=O,≤ 10
4,Cn1c(-c2cc3cccc(OCCc4cnco4)c3n2CC2CC2)nc2cc3c(nc21)CCN(C[C@H](N)CF)C3=O,≤ 10
5,Cn1c(-c2cc3cccc(OCCc4ccn[nH]4)c3n2CC2CC2)nc2cc3c(nc21)CCN(C[C@H](N)CF)C3=O,≤ 10
6,Cn1c(-c2cc3cccc(OCCc4cnn[nH]4)c3n2CC2CC2)nc2cc3c(nc21)CCN(C[C@H](N)CF)C3=O,≤ 10
